Columns and labels:
sedge, umbrella = assay: Test B flooded paddy test; assay type: in vivo, Cyperus difformis; conditions: 500 g ai/ha, Flood; scale of 0 to 100 where 0 is no effect and 100 is complete control
Procedure, shortened: (§1)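 In-water application to pots flooded 3 cm deep, plants at 2-leaf stage. Held in greenhouse 13–15 days at constant flood depth. Scored 0–100 by eye against controls.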

giant foxtail = assay: Test A pre-/postemergence herbicide test; assay type: in vivo, Setaria faberii
Procedure, shortened: (§2)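 Seeds in loam–sand blend received preemergence directed soil spray; separately, plants 2–10 cm at one- to two-leaf stage received postemergence spray, both with test chemicals in non-phytotoxic solvent with surfactant. After ~10 days in greenhouse, injury rated visually against untreated controls, 0 (no effect) to 100 (complete control).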

ducksalad = assay: Test B flooded paddy test; assay type: in vivo, Heteranthera limosa; conditions: 500 g ai/ha, Flood; scale of 0 to 100 where 0 is no effect and 100 is complete control
Procedure, shortened: as §1

wheat = assay: Test A pre-/postemergence herbicide test; assay type: in vivo, Triticum aestivum; conditions: Postemergence; for Plant response rating, Wheat: 125 g ai/ha
Procedure, shortened: as §2

ragweed = assay: Test A pre-/postemergence herbicide test; assay type: in vivo, Ambrosia elatior
Procedure, shortened: as §2

barnyardgrass [1] = assay: Test B flooded paddy test; assay type: in vivo, Echinochloa crus-galli; conditions: 500 g ai/ha, Flood; scale of 0 to 100 where 0 is no effect and 100 is complete control
Procedure, shortened: as §1

ryegrass, Italian = assay: Test A pre-/postemergence herbicide test; assay type: in vivo, Lolium multiflorum
Procedure, shortened: as §2

blackgrass = assay: Test A postemergence herbicide test; assay type: in vivo, Alopecurus myosuroides
Procedure, shortened: (§3)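 Ratings compare treated with untreated plants roughly 10 days after a postemergence application made at the one- to two-leaf stage. Scoring uses 0–100, where 0 means no effect and 100 complete control.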

rice = assay: Test B flooded paddy test; assay type: in vivo, Oryza sativa; conditions: 500 g ai/ha, Flood; scale of 0 to 100 where 0 is no effect and 100 is complete control
Procedure, shortened: as §1

pigweed = assay: Test A pre-/postemergence herbicide test; assay type: in vivo, Amaranthus retroflexus
Procedure, shortened: as §2

kochia = assay: Test A pre-/postemergence herbicide test; assay type: in vivo, Kochia scoparia
Procedure, shortened: as §2

corn = assay: Test A pre-/postemergence herbicide test; assay type: in vivo, Zea mays; conditions: Postemergence
Procedure, shortened: as §2

barnyardgrass [2] = assay: Test A pre-/postemergence herbicide test; assay type: in vivo, Echinochloa crus-galli
Procedure, shortened: as §2

galium = assay: Test A postemergence herbicide test; assay type: in vivo, Galium aparine; conditions: for Plant response rating, Galium: 125 g ai/ha
Procedure, shortened: as §3

[3] = 125 g ai/ha, visual rating, 0 to 100 scale, 0 no effect, 100 complete control, approximately 10 days, preemergence
[4] = Postemergence, 125 g ai/ha, 0 to 100 scale, 0 is no effect, 100 is complete control
[5] = preemergence, 500 g ai/ha, 0 to 100 scale, 0 is no effect and 100 is complete control
[6] = 0 to 100 scale, 0 is no effect, 100 is complete control
[7] = 125 g ai/ha, 0 to 100 scale, 0 is no effect, 100 is complete control
[8] = Postemergence, 125 g ai/ha, visual rating on 0 to 100 scale (0 no effect, 100 complete control), approx. 10 days
[9] = Postemergence, 500 g ai/ha, 0 to 100 scale (0 no effect, 100 complete control)
[10] = Preemergence, 125 g ai/ha, 0 to 100 scale where 0 is no effect and 100 is complete control
[11] = Preemergence, 500 g ai/ha, visual rating on 0 to 100 scale (0 no effect, 100 complete control)
[12] = visual rating on 0 to 100 scale (0 no effect, 100 complete control), approx. 10 days
[13] = 125 g ai/ha, visual rating on 0 to 100 scale (0 no effect, 100 complete control), approx. 10 days
[14] = 500 g ai/ha, 0 to 100 scale (0 no effect, 100 complete control)

With `Cc1ccccc1NC(=O)C1C(=O)NCC1c1ccc(OC(F)F)cc1` (stereo not drawn) [Compound 227] the “Plant response rating, Sedge, Umbrella” value (sedge, umbrella) was 0, the “Plant response rating, Foxtail, Giant” value (giant foxtail; [3]) was 80 and the “Plant response rating, Foxtail, Giant” value (giant foxtail; [4]) was 30. The “Foxtail, Giant plant response rating (0 to 100 scale, 0 is no effect, 100 is complete control)” value (giant foxtail; Postemergence, 500 g ai/ha) was 80, the “Plant response rating, Foxtail, Giant” value (giant foxtail; [5]) was 90 and the “Plant response rating, Ducksalad” value (ducksalad) was 90. The “Plant response rating, Wheat” value (wheat; [6]) was 0, the “Wheat plant response rating (0 to 100 scale, 0 is no effect, 100 is complete control)” value (wheat; 500 g ai/ha) was 0 and the “Plant response rating, Ragweed” value (ragweed; [3]) was 0. The “Plant response rating, Ragweed” value (ragweed; [4]) was 0, the “Ragweed plant response rating (0 to 100 scale, 0 is no effect, 100 is complete control)” value (ragweed; Postemergence, 500 g ai/ha) was 0 and the “Plant response rating, Ragweed” value (ragweed; [5]) was 0. For the same molecule, the “Plant response rating, Barnyardgrass” value (barnyardgrass [1]) was 0, the “Plant response rating, Ryegrass, Italian” value (ryegrass, Italian; [3]) was 0 and the “Plant response rating, Ryegrass, Italian” value (ryegrass, Italian; [4]) was 0. For the same molecule, the “Ryegrass, Italian plant response rating (0 to 100 scale, 0 is no effect, 100 is complete control)” value (ryegrass, Italian; Postemergence, 500 g ai/ha) was 20, the “Plant response rating, Ryegrass, Italian” value (ryegrass, Italian; [5]) was 30 and the “Plant response rating, Blackgrass” value (blackgrass; [7]) was 0. The “Blackgrass plant response rating (0 to 100 scale, 0 is no effect, 100 is complete control)” value (blackgrass; 500 g ai/ha) was 40, the “Plant response rating, Rice” value (rice) was 0 and the “Plant response rating, Pigweed” value (pigweed; [3]) was 0. For the same molecule, the “Plant response rating, Pigweed” value (pigweed; [4]) was 0, the “Pigweed plant response rating (0 to 100 scale, 0 is no effect, 100 is complete control)” value (pigweed; Postemergence, 500 g ai/ha) was 0 and the “Plant response rating, Pigweed” value (pigweed; [5]) was 20. For the same molecule, the “Plant response rating, Kochia” value (kochia; [3]) was 20, the “Plant response rating, Kochia” value (kochia; [4]) was 0 and the “Kochia plant response rating (0 to 100 scale, 0 is no effect, 100 is complete control)” value (kochia; Postemergence, 500 g ai/ha) was 40. For the same molecule, the “Plant response rating, Kochia” value (kochia; [5]) was 20, the “Plant response rating, Corn” value (corn; [7]) was 0 and the “Corn plant response rating (0 to 100 scale, 0 is no effect, 100 is complete control)” value (corn; 500 g ai/ha) was 0. For the same molecule, the “Plant response rating, Barnyardgrass” value (barnyardgrass [2]; [3]) was 20, the “Plant response rating, Barnyardgrass” value (barnyardgrass [2]; [4]) was 20 and the “Barnyardgrass plant response rating (0 to 100 scale, 0 is no effect, 100 is complete control)” value (barnyardgrass [2]; Postemergence, 500 g ai/ha) was 80. The “Plant response rating, Barnyardgrass” value (barnyardgrass [2]; [5]) was 50, the “Plant response rating, Galium” value (galium; [6]) was 0 and the “Galium plant response rating (0 to 100 scale, 0 is no effect, 100 is complete control)” value (galium; 500 g ai/ha) was 0.
With `O=C1NCC(c2ccc(Br)c(Br)c2)C1C(=O)Nc1ccc(F)c(F)c1F` (stereo not drawn) [Compound 342] the “Plant response rating, Sedge, Umbrella” value (sedge, umbrella) was 0, the “Plant response rating, Foxtail, Giant” value (giant foxtail; [8]) was 40 and the “Plant response rating, Foxtail, Giant” value (giant foxtail; [9]) was 50. For the same molecule, the “Plant response rating, Foxtail, Giant” value (giant foxtail; [10]) was 70, the “Foxtail, Giant plant response rating” value (giant foxtail; [11]) was 90 and the “Plant response rating, Ducksalad” value (ducksalad) was 0. For the same molecule, the “Plant response rating, Wheat” value (wheat; [12]) was 0, the “Plant response rating, Ragweed” value (ragweed; [8]) was 0 and the “Plant response rating, Ragweed” value (ragweed; [10]) was 0. For the same molecule, the “Ragweed plant response rating” value (ragweed; [11]) was 0, the “Plant response rating, Barnyardgrass” value (barnyardgrass [1]) was 0 and the “Plant response rating, Ryegrass, Italian” value (ryegrass, Italian; [8]) was 0. For the same molecule, the “Plant response rating, Ryegrass, Italian” value (ryegrass, Italian; [10]) was 0, the “Ryegrass, Italian plant response rating” value (ryegrass, Italian; [11]) was 20 and the “Plant response rating, Blackgrass” value (blackgrass; [13]) was 0. The “Plant response rating, Blackgrass” value (blackgrass; [14]) was 0, the “Plant response rating, Rice” value (rice) was 0 and the “Plant response rating, Pigweed” value (pigweed; [8]) was 0. For the same molecule, the “Plant response rating, Pigweed” value (pigweed; [10]) was 0, the “Pigweed plant response rating” value (pigweed; [11]) was 50 and the “Plant response rating, Kochia” value (kochia; [8]) was 20. The “Plant response rating, Kochia” value (kochia; [10]) was 0, the “Kochia plant response rating” value (kochia; [11]) was 0 and the “Plant response rating, Corn” value (corn; [13]) was 0. The “Plant response rating, Corn” value (corn; [14]) was 40, the “Plant response rating, Barnyardgrass” value (barnyardgrass [2]; [8]) was 30 and the “Plant response rating, Barnyardgrass” value (barnyardgrass [2]; [9]) was 60. For the same molecule, the “Plant response rating, Barnyardgrass” value (barnyardgrass [2]; [10]) was 50, the “Barnyardgrass plant response rating” value (barnyardgrass [2]; [11]) was 80 and the “Plant response rating, Galium” value (galium; [12]) was 0.

— US10294202B2, “Pyrrolidinones as herbicides” (FMC Corporation, priority 2013, dated 2019)
